Measurements as given in ChEMBL document CHEMBL1135361, “Potent in vitro methicillin-resistant Staphylococcus aureus activity of 2-(1H-indol-3-yl)tetrahydroquinoline derivatives” (2002).
≈ marks a conversion by molar mass, not a printed value.

Columns and labels:
Enterococcus faecium = assay: Minimum inhibitory concentration against vancomycin-resistant Enterococcus faecium (VRE); type: functional
Staphylococcus aureus = assay: Minimum inhibitory concentration against methicillin-resistant Staphylococcus aureus; type: functional
[1] = Staphylococcus aureus, read-out: MIC

Compound	MIC (Enterococcus faecium) [µg/mL]	MIC (Staphylococcus aureus; [1]) [µg/mL]	MIC (Staphylococcus aureus) [µg/mL]
Clc1ccc2c(c1)[C@H]1NCC[C@H]1[C@H](c1c[nH]c3ccc(Cl)cc13)N2	> 25	6.25 (≈ 17.4 µM)	–
OCC#Cc1ccc2c(c1)[C@H]1OCC[C@H]1[C@@H](c1c[nH]c3ccc(Br)cc13)N2	–	3.13 (≈ 7.39 µM)	–
Clc1ccc2c(c1)[C@H]1OCC[C@H]1[C@H](c1c[nH]c3ccc(Br)cc13)N2	–	3.13 (≈ 7.76 µM)	–
CC(C)(C)OC(=O)N1CC[C@H]2[C@@H](c3c[nH]c4ccc(Br)cc34)Nc3ccc(Cl)cc3[C@H]21	–	0.78 (≈ 1.55 µM)	–
NCc1cc(-c2c[nH]c3ccc(Br)cc23)nc2cc(Cl)ccc12	1.56 (≈ 4.03 µM)	0.78 (≈ 2.02 µM)	–
FC(F)(F)c1cccc2c1N[C@H](c1c[nH]c3ccc(Br)cc13)[C@@H]1CCO[C@H]21	–	0.78 (≈ 1.78 µM)	–
Brc1ccc2[nH]cc([C@H]3Nc4ccc(CCCN5CCCCC5)cc4[C@H]4OCC[C@@H]34)c2c1	–	12.5 (≈ 25.3 µM)	–
Cc1[nH]c2ccccc2c1[C@H]1Nc2ccc(Cl)cc2[C@H]2OCC[C@@H]12	–	> 25	–
Fc1ccc2c([C@@H]3Nc4ccc(Cl)cc4[C@H]4OCC[C@H]43)c[nH]c2c1	–	12.5 (≈ 36.5 µM)	–
Clc1ccc2c(c1)[C@H]1OCC[C@H]1[C@H](c1c[nH]c3ccc(Cl)cc13)N2	–	3.13 (≈ 8.71 µM)	–
Brc1ccc2[nH]cc([C@H]3Nc4c(I)cccc4[C@H]4OCC[C@@H]34)c2c1	–	< 0.39	–
Clc1ccc2ccc(-c3c[nH]c4ccc(Br)cc34)nc2c1	> 25	0.6 (≈ 1.68 µM)	–
Clc1ccc2c(c1)[C@H]1OCC[C@H]1[C@@H](c1c[nH]c3ccc(Br)cc13)N2 (stereo in doubt)	–	–	0.31 (≈ 0.768 µM)
Fc1ccc2c(c1)[C@H]1OCC[C@H]1[C@@H](c1c[nH]c3ccc(Br)cc13)N2	–	6.25 (≈ 16.1 µM)	–
COc1cccc2c1N[C@H](c1c[nH]c3ccc(Br)cc13)[C@@H]1CCO[C@H]21	–	1.56 (≈ 3.91 µM)	–
Clc1ccc2c(c1)[C@H]1OCC[C@H]1[C@@H](c1c[nH]c3ccccc13)N2	–	> 25	–
Clc1ccc2c(c1)[C@H]1NCC[C@H]1[C@@H](c1c[nH]c3ccc(Cl)cc13)N2	> 25	3.13 (≈ 8.74 µM)	–
Clc1ccc2c(c1)N(Cl)[C@H](c1c[nH]c3ccc(Br)cc13)[C@@H]1CCO[C@H]21	–	1.56 (≈ 3.56 µM)	–
Fc1ccc2c([C@H]3Nc4ccc(Cl)cc4[C@H]4OCC[C@@H]34)c[nH]c2c1	–	6.25 (≈ 18.2 µM)	–
Clc1cc(Cl)c2c(c1)[C@H]1OCC[C@H]1[C@@H](c1c[nH]c3ccc(Br)cc13)N2	–	1.56 (≈ 3.56 µM)	–
CC(C)(C)OC(=O)N1CC[C@@H]2[C@H]1c1cc(Cl)ccc1N[C@H]2c1c[nH]c2ccc(Br)cc12	–	1.56 (≈ 3.1 µM)	–
Clc1ccc2c(c1)[C@H]1OCC[C@H]1[C@H](c1c[nH]c3ccccc13)N2	–	6.25 (≈ 19.2 µM)	–
CN1c2ccc(Cl)cc2[C@H]2OCC[C@H]2[C@H]1c1c[nH]c2ccc(Br)cc12	–	> 25	–
Brc1ccc2[nH]cc([C@H]3Nc4ccc(C#CCN5CCCCC5)cc4[C@H]4OCC[C@@H]34)c2c1	–	1.56 (≈ 3.18 µM)	–
Fc1cccc2c1N[C@H](c1c[nH]c3ccc(Br)cc13)[C@@H]1CCO[C@H]21	–	0.78 (≈ 2.01 µM)	–
Clc1ccc2c(c1)[C@H]1OCC[C@H]1[C@@H](c1c[nH]c3ccc(Br)cc13)N2 (stereo in doubt; 9)	–	–	3.13 (≈ 7.75 µM)
Clc1ccc2c(c1)[C@H]1OCC[C@H]1[C@@H](c1c[nH]c3ccc(Cl)cc13)N2	–	0.78 (≈ 2.17 µM)	–
